Measurements from ChEMBL document CHEMBL1201861, “Genomics of Drug Sensitity in Cancer screening data, Wellcome Trust Sanger Institute”.

Experiments:
NCI-H1963 = assay: cells; format: functional, cell-based, Homo sapiens; conditions: Homo sapiens, NCI-H1963;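 also: cell growth inhibition of the human line, determined with a cell viability assay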
Description: SANGER: Inhibition of human NCI-H1963 cell growth in a cell viability assay.

P31-FUJ = assay: cells; format: functional, cell-based, Homo sapiens; conditions: Homo sapiens, P31-FUJ;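 also: growth inhibition of P31-FUJ cells, read out with a viability assay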
Description: SANGER: Inhibition of human P31-FUJ cell growth in a cell viability assay.

TE-441-T = assay: cells; format: functional, cell-based, Homo sapiens; conditions: Homo sapiens, TE-441-T
Description: SANGER: Inhibition of human TE-441-T cell growth in a cell viability assay.

KP-N-YN = assay: cells; format: functional, cell-based, Homo sapiens; conditions: Homo sapiens, KP-N-YN;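 also: growth inhibition of KP-N-YN cells, read out with a cell viability assay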
Description: SANGER: Inhibition of human KP-N-YN cell growth in a cell viability assay.

IMR-5 = assay: cells; format: functional, cell-based, Homo sapiens; conditions: Homo sapiens, IMR-5;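 also: growth inhibition of human IMR-5 cells, read out with a cell viability assay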
Description: SANGER: Inhibition of human IMR-5 cell growth in a cell viability assay.

CPC-N = assay: cells; format: functional, cell-based, Homo sapiens; conditions: Homo sapiens, CPC-N;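 also: growth inhibition of CPC-N cells, with a cell viability assay as the readout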
Description: SANGER: Inhibition of human CPC-N cell growth in a cell viability assay.

Daudi = assay: cells; format: functional, cell-based, Homo sapiens; conditions: Homo sapiens, Daudi;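 also: growth inhibition of Daudi cells, read out by a viability assay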
Description: SANGER: Inhibition of human Daudi cell growth in a cell viability assay.

YT = assay: cells; format: functional, cell-based, Homo sapiens; conditions: Homo sapiens, YT
Description: SANGER: Inhibition of human YT cell growth in a cell viability assay.

RPMI 8402 = assay: SANGER: Inhibition of human RPMI-8402 cell growth in a cell viability assay.; format: functional, cell-based; conditions: Homo sapiens, RPMI 8402
NB7 = assay: cells; format: functional, cell-based, Homo sapiens; conditions: Homo sapiens, NB7;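 also: growth inhibition of NB7 cells, read out with a cell viability assay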
Description: SANGER: Inhibition of human NB7 cell growth in a cell viability assay.

SUP-T1 = assay: cells; format: functional, cell-based, Homo sapiens; conditions: Homo sapiens, SUP-T1;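 also: growth inhibition of human SUP-T1 cells, read out as cell viability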
Description: SANGER: Inhibition of human SUP-T1 cell growth in a cell viability assay.

NCI-H2227 = assay: cells; format: functional, cell-based, Homo sapiens; conditions: Homo sapiens, NCI-H2227;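 also: growth inhibition of the human cell line, read out with a cell viability assay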
Description: SANGER: Inhibition of human NCI-H2227 cell growth in a cell viability assay.

EB2 = assay: cells; format: functional, cell-based, Homo sapiens; conditions: Homo sapiens, EB2;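 also: growth inhibition of EB2 cells, read out with a cell viability assay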
Description: SANGER: Inhibition of human EB2 cell growth in a cell viability assay.

ECC4 = assay: cells; format: functional, cell-based, Homo sapiens; conditions: Homo sapiens, ECC4;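 also: growth inhibition of ECC4 cells, read out with a cell viability assay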
Description: SANGER: Inhibition of human ECC4 cell growth in a cell viability assay.

NCI-H1694 = assay: cells; format: functional, cell-based, Homo sapiens; conditions: Homo sapiens, NCI-H1694;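 also: cell viability assay measuring inhibition of growth in human NCI-H1694 cells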
Description: SANGER: Inhibition of human NCI-H1694 cell growth in a cell viability assay.

EHEB = assay: cells; format: functional, cell-based, Homo sapiens; conditions: Homo sapiens, EHEB;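 also: growth inhibition of human EHEB cells, read out with a cell viability assay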
Description: SANGER: Inhibition of human EHEB cell growth in a cell viability assay.

In the case of `COc1cc2ncn(-c3cc(OCc4ccccc4S(C)(=O)=O)c(C#N)s3)c2cc1OC` [GSK-319347A], the IC50 (NCI-H1963) is reported as > 5 µM, the IC50 (P31-FUJ) is reported as > 5 µM and the IC50 (TE-441-T) is reported as > 5 µM. The IC50 (KP-N-YN) was > 5 µM, the IC50 (IMR-5) was > 5 µM and the IC50 (CPC-N) was > 5 µM. The IC50 (Daudi) was > 5 µM, the IC50 (YT) was > 5 µM and the IC50 (RPMI 8402; read-out: IC50) was > 5 µM. For the same compound, the IC50 (NB7) was > 5 µM, the IC50 (SUP-T1) was > 5 µM and the IC50 (NCI-H2227) was > 5 µM. For the same compound, the IC50 (EB2) was > 5 µM, the IC50 (ECC4) was > 5 µM and the IC50 (NCI-H1694) was > 5 µM.

With `Cc1ccc(-c2c(C(=O)CCl)n(CCCO)c3ncnc(N)c23)cc1` the IC50 (NCI-H1963) was > 4 µM, the IC50 (P31-FUJ) was > 4 µM and the IC50 (TE-441-T) was > 4 µM. The IC50 (IMR-5) was > 4 µM, the IC50 (CPC-N) was > 4 µM and the IC50 (Daudi) was > 4 µM. For the same compound, the IC50 (YT) was > 4 µM, the IC50 (RPMI 8402; read-out: IC50) was > 4 µM and the IC50 (NB7) was > 4 µM. For the same compound, the IC50 (SUP-T1) was > 4 µM, the IC50 (EB2) was > 4 µM and the IC50 (ECC4) was > 4 µM. For the same compound, the IC50 (NCI-H1694) was > 4 µM and the IC50 (EHEB) was > 4 µM.

`OCCCNc1cc(-c2ccnc(Nc3cccc(Cl)c3)n2)ccn1` was tested, and the IC50 (NCI-H1963) was 0.0931 µM, the IC50 (P31-FUJ) was > 0.256 µM and the IC50 (TE-441-T) was 0.0384 µM. For the same compound, the IC50 (IMR-5) was 0.124 µM, the IC50 (CPC-N) was > 0.256 µM and the IC50 (Daudi) was 0.0553 µM. The IC50 (YT) was > 0.256 µM, the IC50 (RPMI 8402; read-out: IC50) was 0.0709 µM and the IC50 (NB7) was > 0.256 µM. The IC50 (SUP-T1) was > 0.256 µM, the IC50 (EB2) was > 0.256 µM and the IC50 (ECC4) was > 0.256 µM. For the same compound, the IC50 (NCI-H1694) was > 0.256 µM and the IC50 (EHEB) was 0.191 µM.

With `CC[C@H](CO)Nc1nc(NCc2ccccc2)c2ncn(C(C)C)c2n1` [SELICICLIB] the IC50 (NCI-H1963) was > 16 µM, the IC50 (P31-FUJ) was > 16 µM and the IC50 (TE-441-T) was > 16 µM. For the same compound, the IC50 (IMR-5) was > 16 µM, the IC50 (CPC-N) was > 16 µM and the IC50 (Daudi) was > 16 µM. For the same compound, the IC50 (YT) was > 16 µM, the IC50 (RPMI 8402) was 13.6 µM and the IC50 (NB7) was > 16 µM. The IC50 (SUP-T1) was > 16 µM, the IC50 (NCI-H2227) was > 16 µM and the IC50 (EB2) was > 16 µM. The IC50 (ECC4) was > 16 µM, the IC50 (NCI-H1694) was > 16 µM and the IC50 (EHEB) was > 16 µM.

For `COc1cc2ncn(-c3cc(OCc4ccccc4C(F)(F)F)c(C(N)=O)s3)c2cc1OC` [GW843682X], the IC50 (NCI-H1963) was 0.0138 µM, the IC50 (P31-FUJ) was > 0.256 µM and the IC50 (TE-441-T) was > 0.256 µM. For the same compound, the IC50 (IMR-5) was 0.0354 µM, the IC50 (CPC-N) was 0.0412 µM and the IC50 (Daudi) was 0.0347 µM. For the same compound, the IC50 (YT) was > 0.256 µM, the IC50 (RPMI 8402; read-out: IC50) was 0.00467 µM and the IC50 (NB7) was > 0.256 µM. The IC50 (SUP-T1) was > 0.256 µM, the IC50 (EB2) was > 0.256 µM and the IC50 (ECC4) was > 0.256 µM. The IC50 (NCI-H1694) was 0.042 µM and the IC50 (EHEB) was > 0.256 µM.

In the case of `N[C@@H](CSC(c1ccccc1)(c1ccccc1)c1ccccc1)C(=O)O` [S-TRITYL-L-CYSTEINE], the IC50 (NCI-H1963) is reported as 1.15 µM, the IC50 (P31-FUJ) is reported as > 5.12 µM and the IC50 (TE-441-T) is reported as 4.79 µM. It also gave an IC50 (IMR-5) of 1.27 µM, an IC50 (CPC-N) of 2.46 µM and an IC50 (Daudi) of 1.17 µM. The IC50 (YT) was > 5.12 µM, the IC50 (RPMI 8402; read-out: IC50) was 1.28 µM and the IC50 (NB7) was > 5.12 µM. For the same compound, the IC50 (SUP-T1) was > 5.12 µM, the IC50 (EB2) was > 5.12 µM and the IC50 (ECC4) was > 5.12 µM. The IC50 (NCI-H1694) was > 5.12 µM and the IC50 (EHEB) was > 5.12 µM.
